Experimental data: patent publication US20250188030A1, “Biphenyl and Phenylpyridine Compounds” (Pfizer Inc., priority 2023, published 2025)
Where two headings read alike, the source gives them in different places.

Columns and labels:
[1] = biological target: KAT2A (Homo sapiens (Human), UniProt Q92830); test: KAT2A acetyltransferase biochemical assay (RapidFire mass spectrometry, AcCoA to CoA)
[2] = test system: H3K9AC (HT1080 cells); test: H3K9AC Sandwich ELISA Assay in HT1080 cells (KAT2A primary cell-based screening assay); set-up: species or system Human
How it was run: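 HT1080 fibrosarcoma cells seeded 16 h, then treated 24 h at 37 °C with 10-point 1:3 compound dilutions (top 10 µM final, 0.1% DMSO). Acid lysates neutralized with butyrate/PMSF; H3K9ac measured by total-H3-capture sandwich ELISA with luminescent HRP readout, IC50 by four-parameter fit.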

[3] = read-out: KAT2A Ki at 1 μM AcCoA, 5 μM H3 1-21 peptide, 0.5 nM KAT2A, 90-minute reaction
[4] = Homo sapiens, HT-1080, H3K9AC sandwich ELISA

KAT2A, sequence (Q92830 whole entry): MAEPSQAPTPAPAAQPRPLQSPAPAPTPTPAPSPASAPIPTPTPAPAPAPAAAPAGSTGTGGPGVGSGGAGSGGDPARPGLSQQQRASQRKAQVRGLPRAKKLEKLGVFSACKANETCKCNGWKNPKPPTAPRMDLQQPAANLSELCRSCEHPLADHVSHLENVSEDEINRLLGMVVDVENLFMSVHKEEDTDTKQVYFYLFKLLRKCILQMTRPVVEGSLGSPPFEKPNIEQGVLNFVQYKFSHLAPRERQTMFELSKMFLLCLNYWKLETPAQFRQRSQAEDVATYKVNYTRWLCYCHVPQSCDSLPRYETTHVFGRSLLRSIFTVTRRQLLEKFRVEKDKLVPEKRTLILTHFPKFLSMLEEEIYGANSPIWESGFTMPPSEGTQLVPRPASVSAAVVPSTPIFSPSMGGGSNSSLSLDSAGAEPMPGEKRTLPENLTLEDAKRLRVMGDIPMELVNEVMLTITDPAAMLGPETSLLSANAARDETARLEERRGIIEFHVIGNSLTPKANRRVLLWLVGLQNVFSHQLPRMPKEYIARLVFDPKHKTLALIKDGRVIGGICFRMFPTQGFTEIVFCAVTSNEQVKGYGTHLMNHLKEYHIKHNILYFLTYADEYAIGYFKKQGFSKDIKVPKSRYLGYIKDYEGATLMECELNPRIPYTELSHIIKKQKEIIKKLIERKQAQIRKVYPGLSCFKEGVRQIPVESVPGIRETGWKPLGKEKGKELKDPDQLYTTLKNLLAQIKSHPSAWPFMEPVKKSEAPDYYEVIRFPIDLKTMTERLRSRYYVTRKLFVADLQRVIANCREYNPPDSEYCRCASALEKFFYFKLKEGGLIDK

Compound	Ki [1, 3]	IC50 ([2]; H3K9AC sandwich ELISA)	IC50 [2, 4]	Ki ([1]; KAT2A Ki at 1 μM AcCoA, 5 μM H3 1-21 peptide, 0.5 nM KAT2A, 90-minute reaction)
CCc1c(F)cccc1-c1cc([C@@H](C)C(=O)NS(=O)(=O)C2(C)CC2)ccc1O[C@@H]1CC[C@@H](NC(=O)[C@@]2(F)CNC3(CCC3)C2)C1 (single isomer, unassigned) [Example C82]	0.07 nM	8.7 nM	–	–
CCc1c(F)cccc1-c1cc([C@@H](C)C(=O)NS(=O)(=O)C2(C)CC2)ccc1O[C@@H]1CC[C@@H](NC(=O)[C@@]2(F)CNC3(CCC3)C2)C1 (single isomer, unassigned) [Example C83]	0.08 nM	2.4 nM	–	–
CCc1c(F)cccc1-c1cc([C@@H](C)C(=O)NS(=O)(=O)C2(C)CC2)ccc1O[C@@H]1CC[C@@H](NC(=O)[C@@]2(F)CNC3(CCCC3)C2)C1 (single isomer, unassigned) [Example C85]	0.17 nM	6.1 nM	–	–
CCc1c(F)cccc1-c1cc([C@@H](C)C(=O)NS(=O)(=O)C2(C)CC2)ccc1O[C@@H]1CC[C@@H](NC(=O)[C@@]2(F)CNC3(CCCC3)C2)C1 (single isomer, unassigned) [Example C87]	0.07 nM	1.5 nM	–	–
CCS(=O)(=O)NC(=O)[C@H](C)c1ccc(O[C@@H]2CC[C@@H](NC(=O)[C@@]3(F)CNC4(CCC4)C3)C2)c(-c2ccccc2C(C)C)c1 (single isomer, unassigned) [Example C88]	0.21 nM	–	10.3 nM	–
CCS(=O)(=O)NC(=O)C(C)c1ccc(O[C@@H]2CC[C@@H](NC(=O)[C@@]3(F)CNC4(CCC4)C3)C2)c(-c2ccccc2C(C)C)c1 (single isomer, unassigned) [Example C89]	0.16 nM	6.5 nM	–	–
CCS(=O)(=O)NC(=O)C(C)c1ccc(O[C@@H]2CC[C@@H](NC(=O)[C@@]3(F)CNC4(CCC4)C3)C2)c(-c2cccc(F)c2C2CCC2)c1 (single isomer, unassigned) [Example C90]	0.05 nM	–	3.3 nM	–
CCS(=O)(=O)NC(=O)[C@H](C)c1ccc(O[C@@H]2CC[C@@H](NC(=O)[C@@]3(F)CNC4(CCC4)C3)C2)c(-c2cccc(F)c2C2CCC2)c1 (single isomer, unassigned) [Example C91]	0.06 nM	5.4 nM	–	–
CN1CC2(CCCC2)C[C@@H]1C(=O)N[C@@H]1CC[C@@H](Oc2ccc(C(=O)O)cc2-c2ccccc2C2CCC2)C1 (single isomer, unassigned) [Example D9]	6.76 nM	–	67.2 nM	–
C[C@H](C(=O)NS(C)(=O)=O)c1ccc(OC[C@H]2C[C@H](NC(=O)[C@@H]3CC(C)(C)CN3C)C2)c(-c2cccc(F)c2C2CCC2)c1 (single isomer, unassigned) [Example G3]	2.15 nM	–	20.5 nM	–
C[C@@H](C(=O)NS(C)(=O)=O)c1ccc(OC[C@H]2C[C@H](NC(=O)[C@@H]3CC(C)(C)CN3C)C2)c(-c2cccc(F)c2C2CCC2)c1 (single isomer, unassigned) [Example G4]	1.3 nM	–	30.4 nM	–
C[C@@H](C(=O)O)c1nn(C)cc1-c1ccc(O[C@@H]2CC[C@@H](NC(=O)[C@]3(F)CNC4(CCC4)C3)C2)c(-c2cccc(F)c2C2CCC2)c1 (single isomer, unassigned) [Example J2]	–	790 nM	–	61.6 nM
Cn1cc(-c2ccc(O[C@@H]3CC[C@@H](NC(=O)[C@]4(F)CNC5(CCC5)C4)C3)c(-c3cccc(F)c3C3CCC3)c2)c(C(C)(C)C(=O)O)n1 (single isomer, unassigned) [Example J6]	> 1000 nM	746 nM	–	–
Cn1cc(-c2ccc(O[C@@H]3CC[C@@H](NC(=O)[C@]4(F)CNC5(CCC5)C4)C3)c(-c3cccc(F)c3C3CCC3)c2)c(C(=O)O)n1 (single isomer, unassigned) [Example J9]	2.16 nM	4300 nM	–	–
O=C(O)c1nn(C2CC2)cc1-c1ccc(O[C@@H]2CC[C@@H](NC(=O)[C@@]3(F)CNC4(CCC4)C3)C2)c(-c2cccc(F)c2C2CCC2)c1 (single isomer, unassigned) [Example J11]	0.08 nM	8.85 nM	–	–
O=C(O)c1nn(C2CC2)cc1-c1ccc(O[C@@H]2CC[C@@H](NC(=O)[C@@]3(F)CNC4(CCC4)C3)C2)c(-c2cccc(F)c2C2CCC2)c1 (single isomer, unassigned) [Example J12]	25.8 nM	> 1000 nM	–	–
CC(C)n1cc(-c2ccc(O[C@@H]3CC[C@@H](NC(=O)[C@@]4(F)CNC5(CCC5)C4)C3)c(-c3cccc(F)c3C3CCC3)c2)c(C(=O)O)n1 (single isomer, unassigned) [Example J15]	27.3 nM	451 nM	–	–
CN1CC(C)(C)C[C@H]1C(=O)N[C@H]1C[C@H](Oc2ccc(C(=O)O)cc2-c2ccccc2C2CCC2)C[C@H]1O (single isomer, unassigned) [Example K2, 2′-cyclobutyl-6-({(1ξ,3ξ,4ξ)-3-hydroxy-4-[(1,4,4-trimethyl-L-prolyl)amino]cyclopentyl}oxy)[1,1′-biphenyl]-3-carboxylic acid]	1.21 nM	–	28.6 nM	–
O=C(O)c1ccc(O[C@@H]2CC[C@@H](NC(=O)[C@@]3(F)CNC4(CCC4)C3)C2)c(-c2cccc(F)c2C2CCC2)c1 [Example A29, 2′-cyclobutyl-3′-fluoro-6-{[(1R,3R)-3-{[(7S)-7-fluoro-5-azaspiro[3.4]octane-7-carbonyl]amino}cyclopentyl]oxy}[1,1′-biphenyl]-3-carboxylic acid]	0.11 nM	–	> 1000 nM	–
CCc1c(F)cccc1-c1cc(C(C)(C)C(=O)NS(=O)(=O)CC)ccc1O[C@@H]1CC[C@@H](NC(=O)[C@@]2(F)CNC3(CCC3)C2)C1 [Example C17, (7S)-N-[(1R,3R)-3-({5-[1-(ethanesulfonamido)-2-methyl-1-oxopropan-2-yl]-2′-ethyl-3′-fluoro[1,1′-biphenyl]-2-yl}oxy)cyclopentyl]-7-fluoro-5-azaspiro[3.4]octane-7-carboxamide]	2750 nM	–	> 1000 nM	–
CCc1c(F)cccc1-c1cc(C(C)(C)C(=O)NS(=O)(=O)C2(C)CC2)ccc1O[C@@H]1CC[C@@H](NC(=O)[C@@]2(F)CNC3(CCC3)C2)C1 [Example C23, (7S)-N-[(1R,3R)-3-({2′-ethyl-3′-fluoro-5-[2-methyl-1-(1-methylcyclopropane-1-sulfonamido)-1-oxopropan-2-yl][1,1′-biphenyl]-2-yl}oxy)cyclopentyl]-7-fluoro-5-azaspiro[3.4]octane-7-carboxamide]	6.57 nM	–	91.8 nM	–
CCc1ccccc1-c1cc(CC(=O)NS(=O)(=O)C(C)C)ccc1O[C@@H]1CC[C@@H](NC(=O)[C@@]2(F)CNC3(CCC3)C2)C1 [Example C52, (7S)-N-[(1R,3R)-3-({2′-ethyl-5-[2-oxo-2-(propane-2-sulfonamido)ethyl][1,1′-biphenyl]-2-yl}oxy)cyclopentyl]-7-fluoro-5-azaspiro[3.4]octane-7-carboxamide]	0.48 nM	–	8.5 nM	–
CCS(=O)(=O)NC(=O)Cc1ccc(O[C@@H]2CC[C@@H](NC(=O)[C@@]3(F)CNC4(CCC4)C3)C2)c(-c2ccccc2C(C)C)c1 [Example C53, (7S)-N-[(1R,3R)-3-({5-[2-(ethanesulfonamido)-2-oxoethyl]-2′-(propan-2-yl)[1,1′-biphenyl]-2-yl}oxy)cyclopentyl]-7-fluoro-5-azaspiro[3.4]octane-7-carboxamide]	0.1 nM	–	7 nM	–
CN1CC(C)(C)C[C@H]1C(=O)N[C@@H]1CC[C@@H](Oc2ccc(C(=O)O)cc2-c2ccccc2C2CCC2)C1 [Example D4, 2′-cyclobutyl-6-({(1R,3R)-3-[(1,4,4-trimethyl-L-prolyl)amino]cyclopentyl}oxy)[1,1′-biphenyl]-3-carboxylic acid]	25.1 nM	–	88 nM	–
CN1CC(C)(C)C[C@H]1C(=O)N[C@@H]1CC[C@@H](Oc2ccc(C(=O)O)cc2-c2cccc(F)c2C2CCC2)C1 [Example D6, 2′-cyclobutyl-3′-fluoro-6-({(1R,3R)-3-[(1,4,4-trimethyl-L-prolyl)amino]cyclopentyl}oxy)[1,1′-biphenyl]-3-carboxylic acid]	1.08 nM	–	19 nM	–
CC(C)c1c(F)cccc1-c1cc(C(=O)O)ccc1O[C@@H]1CC[C@@H](NC(=O)[C@@H]2CC(C)(C)CN2C)C1 [Example D7, 3′-fluoro-2′-(propan-2-yl)-6-({(1R,3R)-3-[(1,4,4-trimethyl-L-prolyl)amino]cyclopentyl}oxy)[1,1′-biphenyl]-3-carboxylic acid]	3.57 nM	–	45.1 nM	–
CC(C)c1c(F)cccc1-c1cc(CC(=O)O)ccc1O[C@@H]1CC[C@@H](NC(=O)[C@@H]2CC(C)(C)CN2C)C1 [Example D12, [3′-fluoro-2′-(propan-2-yl)-6-({(1R,3R)-3-[(1,4,4-trimethyl-L-prolyl)amino]cyclopentyl}oxy)[1,1′-biphenyl]-3-yl]acetic acid]	12.4 nM	–	66.6 nM	–
[2H]C([2H])([2H])N1CC(C)(C)C[C@H]1C(=O)N[C@@H]1CC[C@@H](Oc2ccc(C(C)(C)C(=O)O)cc2-c2cccc(F)c2C2CCC2)C1 [Example D15, 2-(2′-cyclobutyl-6-{[(1R,3R)-3-{[4,4-dimethyl-1-(^2H3)methyl-L-prolyl]amino}cyclopentyl]oxy}-3′-fluoro[1,1′-biphenyl]-3-yl)-2-methylpropanoic acid]	8.87 nM	–	83.5 nM	–
CN1CC(C)(C)C[C@H]1C(=O)N[C@@H]1CC[C@@H](Oc2ccc(C(C)(C)c3noc(=O)[nH]3)cc2-c2cccc(F)c2C2CCC2)C1 [Example D17, N-[(1R,3R)-3-({2′-cyclobutyl-3′-fluoro-5-[2-(5-oxo-4,5-dihydro-1,2,4-oxadiazol-3-yl)propan-2-yl][1,1′-biphenyl]-2-yl}oxy)cyclopentyl]-1,4,4-trimethyl-L-prolinamide]	2.64 nM	–	14.4 nM	–
